Where two headings read alike, the source gives them in different places.
Legend:
HCT116 cells = test: MTT antiproliferative assay, HCT116
Protocol: (§1) The cytotoxicity assay was performed with MTT method as previously described ([73], [88], [89]).

A431 cells = test: MTT antiproliferative assay, A431
Protocol: as §1

HDAC1 = HDAC1 (Homo sapiens, UniProt Q13547); test: HTRF enzyme inhibition assay, HDAC1; settings: for inhibition at 1 µM: read-out: % enzyme inhibition HDAC; for % enzyme inhibition HDAC: compound at 1 μM, HTRF, method names HDAC1 protein
GST-tagged MDM2 = biological target: T1, GST-tagged MDM2 (Homo sapiens, UniProt Q00987); test: HTRF enzyme inhibition assay, MDM2; assay type: biochemical; settings: compound at 1 μM
T1 construct: purchased Cisbio Co. Ltd
T1 sequence (Q00987 whole entry): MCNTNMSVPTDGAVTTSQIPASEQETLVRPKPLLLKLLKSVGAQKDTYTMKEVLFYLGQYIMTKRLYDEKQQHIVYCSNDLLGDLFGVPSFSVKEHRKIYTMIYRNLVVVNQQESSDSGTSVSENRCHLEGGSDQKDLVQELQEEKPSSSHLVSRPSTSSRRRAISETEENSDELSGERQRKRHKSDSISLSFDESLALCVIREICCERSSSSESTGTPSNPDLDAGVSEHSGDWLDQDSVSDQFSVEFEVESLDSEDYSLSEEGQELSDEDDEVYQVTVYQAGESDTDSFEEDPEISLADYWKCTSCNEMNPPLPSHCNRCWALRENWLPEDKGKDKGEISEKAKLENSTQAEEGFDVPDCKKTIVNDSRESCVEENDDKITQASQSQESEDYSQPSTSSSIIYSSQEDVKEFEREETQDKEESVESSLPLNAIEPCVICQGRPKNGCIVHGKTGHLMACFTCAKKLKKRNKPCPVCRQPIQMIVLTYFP
Protocol: The enzymatic assay of test compounds is using the HTRF-based method provided by Cisbio Co. Ltd. In brief, the target compounds to be tested were prepared into samples with a concentration of 1 μM, which was added to GST-tagged MDM2 and HDAC1 proteins, respectively, then biotinylated substrate p53 peptide and HTRF detection reagents were added. The data obtained were processed by the ratio method, and the inhibition rates of MDM2 and HDAC1 were calculated. The detailed experimental procedures are according to the manufacturer’s protocols.

MCF-7 cells [1] = test: MTT antiproliferative assay, MCF-7
Protocol: as §1

MCF-7 cells [2] = test: Annexin V-FITC/PI double staining, flow cytometry; assay type: cell-based, human; settings: MCF-7, 5.0 μM, 24 h
Protocol: It was reported that the inactivation of HDAC and/or MDM2 could increase the percentage of apoptosis cells ([85]–[87]). Therefore, three methods were applied to assess the effect of MDM2-HDAC dual inhibitor 11b on the apoptosis of MCF-7 cells. […] Subsequently, the annexin V-FITC/propidium iodide (PI) double staining method was carried out to quantitatively detect the effect of compound 11b on cell apoptosis (Figure 9B).
Cells were collected after incubation, then fixed with 75% ice-cold ethanol and stored at -20°C for 1 h. The cells were then harvested with 0.25% trypsin (without EDTA) and centrifuged at 2000 rpm for 5min. Then, the harvested cells were washed with ice-cold PBS twice and resuspended in 500 μL of 1× binding buffer, which was then added to 5 μL of annexin V-FITC and incubated at room temperature in the dark for 15 min. After adding 10 μL of propidium iodide (PI), the cells were incubated at room temperature in the dark. After another 15 min incubation, the cells were collected and analyzed by flow cytometry.

[3] = Homo sapiens, HCT-116, read-out: IC50 HCT116
[4] = Homo sapiens, A-431, read-out: IC50 A431
[5] = Homo sapiens, MCF7, read-out: IC50 MCF-7
[6] = read-out: IC50 HCT116, MTT, HCT116 human colorectal cancer, mean ± standard of at least three replicates
[7] = read-out: IC50 A431, MTT, A431 human epidermal carcinoma, mean ± standard of at least three replicates
[8] = read-out: IC50 MCF-7, MTT, MCF-7 human breast cancer, mean ± standard of at least three replicates

Chain of HDAC1 (Q13547 whole entry): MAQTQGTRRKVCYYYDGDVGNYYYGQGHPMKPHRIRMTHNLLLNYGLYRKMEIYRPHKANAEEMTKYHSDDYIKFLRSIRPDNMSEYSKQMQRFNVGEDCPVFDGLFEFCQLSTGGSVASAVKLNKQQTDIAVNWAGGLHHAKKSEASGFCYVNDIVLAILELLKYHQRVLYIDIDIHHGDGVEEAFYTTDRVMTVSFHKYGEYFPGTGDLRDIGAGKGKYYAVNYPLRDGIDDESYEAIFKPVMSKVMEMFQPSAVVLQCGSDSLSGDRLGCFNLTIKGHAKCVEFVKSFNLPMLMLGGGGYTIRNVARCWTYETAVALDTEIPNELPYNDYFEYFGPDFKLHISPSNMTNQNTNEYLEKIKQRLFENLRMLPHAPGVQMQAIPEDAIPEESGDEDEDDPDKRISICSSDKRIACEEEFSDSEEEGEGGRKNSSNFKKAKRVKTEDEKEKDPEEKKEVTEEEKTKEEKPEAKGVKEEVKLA

Compound	IC50 (HCT116 cells; [3]) [µM]	IC50 (A431 cells; [4]) [µM]	inhibition at 1 µM (HDAC1) [%]	melting point [°C]	inhibition at 1 µM (GST-tagged MDM2) [%]	IC50 (MCF-7 cells [1]; [5]) [µM]	apoptotic cells (MCF-7 cells [2]) [%]	IC50 (HCT116 cells; [6]) [µM]	IC50 (A431 cells; [7]) [µM]	% enzyme inhibition HDAC (HDAC1) [%]	% enzyme inhibition MDM2 (GST-tagged MDM2) [%]	IC50 (MCF-7 cells [1]; [8]) [µM]
O=C(COCC(=O)Nc1ccc([C@@H]2[C@H]3CSCN3[C@]3(C(=O)Nc4cc(Cl)ccc43)[C@H]2C(=O)c2ccccc2)cc1)NO [7u, N-(4-((3R,6'S,7'R,7a'S)-6'-benzoyl-6-chloro-2-oxo-1',6',7',7a'-tetrahydro-3'H-spiro[indoline-3,5'-pyrrolo[1,2-c]thiazol]-7'-yl)phenyl)-2-(2-(hydroxyamino)-2-oxoethoxy)acetamide]	4.59 ± 0.91	3.64 ± 0.56	54	167.1 to 168.5	61	3.47 ± 0.92	–	–	–	–	–	–
O=C(CCCCC(=O)N1CCC(C(=O)Nc2ccc([C@@H]3[C@H]4CSCN4[C@]4(C(=O)Nc5cc(Cl)ccc54)[C@H]3C(=O)c3ccccc3)cc2)CC1)NO [11a, N-(4-((3R,6'S,7'R,7a'S)-6'-benzoyl-6-chloro-2-oxo-1',6',7',7a'-tetrahydro-3'H-spiro[indoline-3,5'-pyrrolo[1,2-c]thiazol]-7'-yl)phenyl)-1-(6-(hydroxyamino)-6-oxohexanoyl)piperidine-4-carboxamide]	4.32 ± 0.9	4.62 ± 0.78	70	170.3 to 171.5	62	4.48 ± 1.46	–	–	–	–	–	–
CN1C[C@@H](c2ccc(NC(=O)CCCCCCC(=O)NO)cc2)[C@H](C(=O)c2ccccc2)[C@@]12C(=O)Nc1cc(Cl)ccc12 [13a, N^1-(4-((3R,3'S,4'R)-3'-benzoyl-6-chloro-1'-methyl-2-oxospiro[indoline-3,2'-pyrrolidin]-4'-yl)phenyl)-N^8-hydroxyoctanediamide]	–	–	65	126.7 to 127.9	52	–	–	–	–	–	–	–
O=C(CCCCCCC(=O)Nc1ccc([C@@H]2[C@@H](c3ccccc3)N[C@]3(C(=O)Nc4cc(Cl)ccc43)[C@H]2C(=O)c2ccccc2)cc1)NO [15a, N^1-(4-((3R,3'S,4'R,5'S)-3'-benzoyl-6-chloro-2-oxo-5'-phenylspiro[indoline-3,2'-pyrrolidin]-4'-yl)phenyl)-N^8-hydroxyoctanediamide]	8.45 ± 2.44	6.99 ± 0.92	61	146.5 to 147.6	67	5.71 ± 1.03	–	–	–	–	–	–
COc1ccc(C2=N[C@@H](c3ccc(Cl)cc3)[C@@H](c3ccc(Cl)cc3)N2C(=O)N2CCNC(=O)C2)c(OC(C)C)c1 [Nutlin-3, reference compound]	11 ± 2.42	9.72 ± 1.66	–	–	–	9.75 ± 2.97	28.23	–	–	–	–	–
O=C(CCCCCCC(=O)Nc1ccccc1)NO [SAHA, vorinostat]	–	–	–	–	–	–	7.56	–	–	–	–	–
O=C(CCCCCCC(=O)Nc1ccc([C@@H]2[C@H]3CSCN3[C@]3(C(=O)Nc4cc(Cl)ccc43)[C@H]2C(=O)c2ccccc2)cc1)NO [compound 7f, N^1-(4-((3R,6'S,7'R,7a'S)-6'-benzoyl-6-chloro-2-oxo-1',6',7',7a'-tetrahydro-3'H-spiro[indoline-3,5'-pyrrolo[1,2-c]thiazol]-7'-yl)phenyl)-N^8-hydroxyoctanediamide]	–	–	64	150.2 to 151.2	65	–	–	–	–	–	–	–
N^1-(4-((3R,6'S,7'R,7a'S)-6-chloro-6'-(3-methoxybenzoyl)-2-oxo-1',6',7',7a'-tetrahydro-3'H-spiro[indoline-3,5'-pyrrolo[1,2-c]thiazol]-7'-yl)phenyl)-N^6-hydroxyadipamide [7w]	–	–	–	–	–	–	–	3.91 ± 0.84	3.32 ± 0.68	69	60	3.77 ± 0.93
N^1-(4-((3R,6'S,7'R,7a'S)-6-chloro-6'-(4-fluorobenzoyl)-2-oxo-1',6',7',7a'-tetrahydro-3'H-spiro[indoline-3,5'-pyrrolo[1,2-c]thiazol]-7'-yl)phenyl)-N^6-hydroxyadipamide [7x]	–	–	–	–	–	–	–	3.45 ± 0.57	3.43 ± 0.73	73	62	2.9 ± 0.56
